Assay results: ChEMBL document CHEMBL1201862, “PubChem BioAssay data set” (2004)
Calls of active or inactive are those of the source.

Tests used:
A549 = assay: A549 cell toxicity, dose response, cytotoxicity control, plate reader, cherry-pick samples (AID 687028); type: functional, cell-based; conditions: Homo sapiens
BHK-21 = assay: BHK-21 cell toxicity, dose response, cytotoxicity control, plate reader, cherry-pick samples (AID 687030); type: functional, cell-based; conditions: Mesocricetus auratus
Vero = assay: Vero cell toxicity, dose response, cytotoxicity control, plate reader, cherry-pick samples (AID 687020); type: functional, cell-based; conditions: Chlorocebus sabaeus
[1] = HeLa cell cytotoxicity, dose response, cytotoxicity control, ATP luminescence, dry powder (AID 652117); type: functional, cell-based
[2] = target: Protein disulfide-isomerase (Homo sapiens, UniProt P07237); assay: PDI inhibitors, insulin turbidity readout, confirmation, biochemical, dry powder samples, set 2 (AID 652146)
Protein disulfide-isomerase, sequence (P07237 whole entry): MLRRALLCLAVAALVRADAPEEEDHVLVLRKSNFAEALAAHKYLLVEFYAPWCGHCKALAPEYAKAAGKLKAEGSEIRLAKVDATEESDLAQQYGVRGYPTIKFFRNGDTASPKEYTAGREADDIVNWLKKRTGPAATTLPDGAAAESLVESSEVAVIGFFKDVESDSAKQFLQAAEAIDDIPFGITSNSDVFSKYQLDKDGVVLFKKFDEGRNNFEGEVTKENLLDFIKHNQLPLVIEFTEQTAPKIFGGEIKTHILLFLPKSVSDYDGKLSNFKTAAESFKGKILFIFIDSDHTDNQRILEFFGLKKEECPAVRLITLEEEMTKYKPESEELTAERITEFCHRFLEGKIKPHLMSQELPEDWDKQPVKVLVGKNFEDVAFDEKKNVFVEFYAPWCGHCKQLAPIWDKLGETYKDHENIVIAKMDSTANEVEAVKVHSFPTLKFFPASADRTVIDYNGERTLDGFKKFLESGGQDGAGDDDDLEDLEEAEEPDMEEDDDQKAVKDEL

[3] = target: Protein disulfide-isomerase A6 (Homo sapiens, UniProt Q15084); assay: Secondary Assay for Selectivity of PDI Inhibitors (against ERp5) Measured in Biochemical System Using Plate Reader - 2137-04_Inhibitor_Dose_DryPowder_Activity_Set3.
Protein disulfide-isomerase A6, sequence (Q15084 whole entry): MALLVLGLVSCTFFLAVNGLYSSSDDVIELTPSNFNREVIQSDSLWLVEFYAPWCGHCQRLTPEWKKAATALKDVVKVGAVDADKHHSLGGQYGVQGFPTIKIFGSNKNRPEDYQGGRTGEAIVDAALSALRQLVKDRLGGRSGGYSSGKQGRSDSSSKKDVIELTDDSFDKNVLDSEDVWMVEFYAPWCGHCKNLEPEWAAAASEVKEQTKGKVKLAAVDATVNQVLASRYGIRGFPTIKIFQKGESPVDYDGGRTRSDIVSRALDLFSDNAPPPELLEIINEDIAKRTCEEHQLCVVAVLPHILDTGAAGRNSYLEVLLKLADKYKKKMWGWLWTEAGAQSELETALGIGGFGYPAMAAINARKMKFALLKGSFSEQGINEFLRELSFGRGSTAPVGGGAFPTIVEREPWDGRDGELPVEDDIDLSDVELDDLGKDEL

[4] = target: Metabotropic glutamate receptor 3 (Rattus norvegicus, UniProt P31422); assay: mGlu3 negative allosteric modulator potency, dose response, HEK/GIRK cells, thallium flux, rat (AID 651839); type: functional
Metabotropic glutamate receptor 3, sequence (P31422 whole entry, the tested form may be a part): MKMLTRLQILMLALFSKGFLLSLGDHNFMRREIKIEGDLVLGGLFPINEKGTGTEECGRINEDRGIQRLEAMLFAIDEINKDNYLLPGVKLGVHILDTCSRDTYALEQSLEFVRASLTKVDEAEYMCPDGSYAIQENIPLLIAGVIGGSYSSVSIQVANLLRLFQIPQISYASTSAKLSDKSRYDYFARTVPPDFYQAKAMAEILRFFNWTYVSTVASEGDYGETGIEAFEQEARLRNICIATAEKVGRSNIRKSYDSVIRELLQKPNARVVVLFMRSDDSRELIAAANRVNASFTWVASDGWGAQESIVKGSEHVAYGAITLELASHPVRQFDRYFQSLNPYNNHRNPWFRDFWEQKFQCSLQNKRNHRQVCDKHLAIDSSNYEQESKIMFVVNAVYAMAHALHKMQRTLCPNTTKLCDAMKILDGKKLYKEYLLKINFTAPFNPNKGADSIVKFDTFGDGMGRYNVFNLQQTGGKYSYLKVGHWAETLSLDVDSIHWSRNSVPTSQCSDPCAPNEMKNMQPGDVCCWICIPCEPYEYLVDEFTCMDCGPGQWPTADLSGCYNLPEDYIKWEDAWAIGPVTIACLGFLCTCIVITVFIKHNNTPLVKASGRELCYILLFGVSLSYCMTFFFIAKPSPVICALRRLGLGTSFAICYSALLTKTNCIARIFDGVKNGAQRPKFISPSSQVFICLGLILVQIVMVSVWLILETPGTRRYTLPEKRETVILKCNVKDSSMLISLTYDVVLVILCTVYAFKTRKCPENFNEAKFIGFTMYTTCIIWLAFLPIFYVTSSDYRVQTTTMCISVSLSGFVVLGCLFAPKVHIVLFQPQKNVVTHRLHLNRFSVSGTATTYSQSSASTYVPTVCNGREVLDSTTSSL

[5] = target: E3 ubiquitin-protein ligase UHRF1 (Homo sapiens, UniProt Q96T88); assay: Counterscreen for inhibitors of 5-meCpG-binding domain protein 2 (MBD2): TRFRET-based biochemical high throughput dose response assay to identify inhibitors of binding of ubiquitin-like with PHD and ring finger domains 1 (UHRF1) to methylated oligonucleotide.
E3 ubiquitin-protein ligase UHRF1, sequence (Q96T88 whole entry, the tested form may be a part): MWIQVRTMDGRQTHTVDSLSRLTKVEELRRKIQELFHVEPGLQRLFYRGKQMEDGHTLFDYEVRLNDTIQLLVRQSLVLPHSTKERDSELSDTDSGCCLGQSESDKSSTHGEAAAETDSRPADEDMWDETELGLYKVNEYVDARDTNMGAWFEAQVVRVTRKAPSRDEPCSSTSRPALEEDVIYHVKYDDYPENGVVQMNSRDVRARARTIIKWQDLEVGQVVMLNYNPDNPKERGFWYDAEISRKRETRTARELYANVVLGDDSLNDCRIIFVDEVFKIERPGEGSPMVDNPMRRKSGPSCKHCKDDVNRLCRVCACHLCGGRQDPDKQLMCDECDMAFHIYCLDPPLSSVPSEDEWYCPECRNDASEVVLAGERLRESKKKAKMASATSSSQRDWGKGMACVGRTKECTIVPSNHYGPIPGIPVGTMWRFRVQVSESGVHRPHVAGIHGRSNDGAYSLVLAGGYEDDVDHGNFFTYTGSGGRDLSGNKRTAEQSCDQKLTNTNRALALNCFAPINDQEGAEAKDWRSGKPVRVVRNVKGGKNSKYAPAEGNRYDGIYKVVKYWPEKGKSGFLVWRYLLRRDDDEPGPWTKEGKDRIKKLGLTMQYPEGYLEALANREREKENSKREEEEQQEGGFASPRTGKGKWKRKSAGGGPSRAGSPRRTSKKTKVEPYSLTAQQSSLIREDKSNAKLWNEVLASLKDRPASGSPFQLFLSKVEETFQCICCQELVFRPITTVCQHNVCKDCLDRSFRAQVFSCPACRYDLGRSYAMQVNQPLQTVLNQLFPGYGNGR

cells [6] = type: functional, cell-based
cells [7] = type: functional, cell-based; remark: listed apart in the source
[8] = target: T1, Trace amine-associated receptor 1 (Homo sapiens, UniProt Q96RJ0); assay: Fluorescence-based cell-based high throughput dose response assay to identify agonists of the human trace amine associated receptor 1 (TAAR1).; type: functional
T1 sequence (Q96RJ0 whole entry): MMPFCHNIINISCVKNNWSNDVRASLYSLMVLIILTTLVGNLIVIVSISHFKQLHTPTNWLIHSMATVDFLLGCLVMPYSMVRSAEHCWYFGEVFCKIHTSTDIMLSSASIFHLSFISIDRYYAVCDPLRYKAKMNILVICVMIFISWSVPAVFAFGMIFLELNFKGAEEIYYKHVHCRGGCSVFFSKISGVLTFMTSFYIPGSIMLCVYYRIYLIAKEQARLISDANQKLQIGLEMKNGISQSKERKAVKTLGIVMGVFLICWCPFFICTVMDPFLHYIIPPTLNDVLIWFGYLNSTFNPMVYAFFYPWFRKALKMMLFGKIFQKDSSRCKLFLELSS

[9] = target: T1, Trace amine-associated receptor 1; assay: Counterscreen for agonists of the human trace amine associated receptor 1 (hTAAR1): Fluorescence-based cell-based high throughput dose response assay to identify hTAAR1 agonist that also desensitize TAAR1 receptor response.; type: functional
Albumin = Albumin (Bos taurus, UniProt P02769); assay: Counterscreen for inhibitors of T-cell receptor (TCR)-CD3 interaction: Fluorescence-based biochemical high throughput dose response assay to identify inhibitors of T-cell receptor (TCR)-CD3 interaction using a TAMRA-labeled BSA probe.; type: functional
Albumin, sequence (P02769 whole entry): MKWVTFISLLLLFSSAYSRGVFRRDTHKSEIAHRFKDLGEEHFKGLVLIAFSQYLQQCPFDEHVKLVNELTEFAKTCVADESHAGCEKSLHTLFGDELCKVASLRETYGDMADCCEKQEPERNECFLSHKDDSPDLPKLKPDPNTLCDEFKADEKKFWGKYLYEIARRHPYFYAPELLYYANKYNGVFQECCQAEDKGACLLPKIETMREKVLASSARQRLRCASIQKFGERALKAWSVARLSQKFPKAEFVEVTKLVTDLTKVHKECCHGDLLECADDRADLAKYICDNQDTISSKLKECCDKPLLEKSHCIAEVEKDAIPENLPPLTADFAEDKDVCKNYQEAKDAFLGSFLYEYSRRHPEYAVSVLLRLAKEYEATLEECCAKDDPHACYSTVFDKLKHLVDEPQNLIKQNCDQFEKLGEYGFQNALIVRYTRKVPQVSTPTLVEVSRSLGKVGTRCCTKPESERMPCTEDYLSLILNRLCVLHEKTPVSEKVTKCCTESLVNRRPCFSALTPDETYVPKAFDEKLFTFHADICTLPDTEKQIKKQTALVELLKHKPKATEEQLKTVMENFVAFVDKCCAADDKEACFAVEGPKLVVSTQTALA

[10] = Vero E6 cell cytotoxicity, dose response, cytotoxicity control for non-replicating M. tuberculosis project, secondary assay (AID 492998); type: functional, VeroE6; conditions: Vero C1008
Jurkat = assay: antigen receptor-induced NF-kB inhibitors, dose response, Jurkat, luciferase reporter, luminescence, B- and T-cell (AID 489004); type: functional, cell-based; conditions: Homo sapiens;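 further: NF-kB luciferase reporter Jurkat cells stimulated with PMA plus ionomycin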
P388/ADR = assay: cells; type: functional; conditions: Mus musculus
SN12K1 = assay: cells; type: functional; conditions: Homo sapiens
[11] = inhibitors of PGC1a acetylation in cells, dose response, cell-based, cherry-picked samples (AID 720514); type: functional;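 further: potency may reflect raised or lowered acetylation signal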
cells [12] = type: functional
[13] = cytotoxicity in HEK-293T NF-kB-Luc cells, dose response, cytotoxicity control for B/T-cell NF-kB inhibitor project, cell-based, uHTS hits (AID 489019); type: functional;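 further: IC50 reflects cytotoxicity as loss of cell viability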
[14] = THP-1 cell cytotoxicity, dose response, cytotoxicity control for non-replicating M. tuberculosis project (AID 489025); type: functional
[15] = HepG2 cell cytotoxicity, dose response, cytotoxicity control for non-replicating M. tuberculosis project (AID 489018); type: functional; conditions: Mycobacterium tuberculosis
[16] = target: T2, Eukaryotic translation initiation factor 2-alpha kinase 3 (Homo sapiens, UniProt Q9NZJ5); assay: Counterscreen assay for PERK inhibitors: Dose response cell-based high throughput screening assay to measure inhibition of PERK at 6 hours. [Related pubchem assays: 1522, 1416 ]; type: functional
T2 sequence (Q9NZJ5 whole entry): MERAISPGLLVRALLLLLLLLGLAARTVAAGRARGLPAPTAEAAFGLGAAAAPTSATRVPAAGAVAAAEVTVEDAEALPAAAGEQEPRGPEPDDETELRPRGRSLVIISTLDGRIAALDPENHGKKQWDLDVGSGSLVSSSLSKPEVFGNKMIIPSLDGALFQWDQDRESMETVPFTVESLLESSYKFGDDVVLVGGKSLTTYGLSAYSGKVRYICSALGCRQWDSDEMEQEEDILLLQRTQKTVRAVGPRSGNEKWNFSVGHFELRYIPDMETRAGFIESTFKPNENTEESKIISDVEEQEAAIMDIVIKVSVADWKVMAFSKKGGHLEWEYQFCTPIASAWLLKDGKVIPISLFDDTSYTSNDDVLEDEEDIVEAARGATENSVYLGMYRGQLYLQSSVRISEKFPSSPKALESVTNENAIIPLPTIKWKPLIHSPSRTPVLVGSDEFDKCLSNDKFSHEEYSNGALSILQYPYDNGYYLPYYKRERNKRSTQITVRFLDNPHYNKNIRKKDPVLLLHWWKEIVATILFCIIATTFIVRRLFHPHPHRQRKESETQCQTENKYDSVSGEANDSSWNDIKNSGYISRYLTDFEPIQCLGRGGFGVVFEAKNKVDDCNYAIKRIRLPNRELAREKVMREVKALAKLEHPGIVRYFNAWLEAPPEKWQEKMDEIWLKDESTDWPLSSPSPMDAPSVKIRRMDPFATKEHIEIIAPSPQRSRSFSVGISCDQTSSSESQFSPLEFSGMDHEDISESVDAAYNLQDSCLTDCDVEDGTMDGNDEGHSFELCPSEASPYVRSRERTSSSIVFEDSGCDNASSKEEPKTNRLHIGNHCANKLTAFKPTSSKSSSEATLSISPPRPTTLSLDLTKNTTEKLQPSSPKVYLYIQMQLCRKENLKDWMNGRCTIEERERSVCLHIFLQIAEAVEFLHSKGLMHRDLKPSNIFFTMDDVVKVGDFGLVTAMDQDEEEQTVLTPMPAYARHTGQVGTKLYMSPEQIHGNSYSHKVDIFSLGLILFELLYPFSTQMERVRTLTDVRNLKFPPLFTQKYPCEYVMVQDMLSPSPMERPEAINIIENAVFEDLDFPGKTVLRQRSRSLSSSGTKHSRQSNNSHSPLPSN

[17] = target: T2, Eukaryotic translation initiation factor 2-alpha kinase 3; assay: Dose response cell-based high-throughput screening assay to measure PERK inhibition. [Related pubchem assays: 1416 ]; type: functional
P388 = assay: cells; type: functional; conditions: Mus musculus
[18] = microbe, parasite or virus in culture; type: functional; conditions: Mycobacterium tuberculosis
[19] = HEK293T cell cytotoxicity, dose response, cytotoxicity control, luminescence plate reader, powder samples, set 4 (AID 651863); type: functional, cell-based; conditions: HEK293
[20] = A375 melanoma cell cytotoxicity, dose response, counter-screen for MITF inhibitor project, CellTiter-Glo luminescence, dry powder, set 2 (AID 624489); type: functional, cell-based; conditions: A-375;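 further: actives are compounds lowering A375 viability meaning general cytotoxicity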
[21] = A375 melanoma cell viability loss, dose response, counter-screen for MITF inhibitor project, CellTiter-Glo luminescence, dry powder, set 4 (AID 624364); type: functional, cell-based; conditions: A-375;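 further: A375 melanoma cells are MITF independent so this is a counter screen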

## CCCCN(C(C)=O)c1ccc2c(c1)C1CC2CCN1Cc1ccccc1 (centres undefined)
A549
  AC50: 30.3 µM (active)
BHK-21
  AC50: 33.7 µM (active)
Vero
  AC50: 30.5 µM (active)

## CC(C)(C)OC(=O)C1(CCOc2ccccc2)CCN(Cc2ccc(O)c(Cl)c2)CC1
[1]
  AC50: 34 µM (active)
[2]
  AC50: 0.6 µM (active)
[3]
  AC50: 30 µM (inactive)

## COc1ccc(C#Cc2ccc(C(=O)N3CC[C@@H](O)C3)cc2)cc1
[4]
  IC50: 6.34 µM (active)

## NC1=C(c2nc3ccccc3s2)C(=O)CN1NC(=O)c1c[nH]c2ccccc12
[5]
  IC50: > 43.8 µM (inactive)

## O=C(CSC1=Nc2ccc(F)cc2S(=O)(=O)N1)NCCc1ccccc1
Cells [6]
  IC50: > 29.9 µM (inactive)
Cells [7]
  EC50: > 29.9 µM (inactive)
[8]
  EC50: 0.621 µM (active)
[9]
  IC50: 3.52 µM (active)

## CN=C(S)NNC(=O)c1cccn(Cc2cccc(C(F)(F)F)c2)c1=O
Albumin
  IC50: > 94.1 µM (inactive)

## COc1cccc2c1C(CO)N1C(C#N)C3CC(C(=O)O)C(C1C2)N3C (centres undefined)
[10]
  CC50: 0.33 µM (active)
Jurkat
  IC50: 0.34 µM (active)
P388/ADR
  GI50: < 0.0384 µM (active)
SN12K1
  GI50: 0.243 µM (active)
[11]
  AC50: 20.1 µM (active)
Cells [12]
  IC50: 2.76 µM (active)
[13]
  IC50: > 80 µM (inactive)
[14]
  CC50: 0.153 µM (active)
[15]
  CC50: 0.925 µM (active)
[16]
  EC50: > 55.7 µM (not active)
[17]
  EC50: > 55.7 µM (not active)
P388
  GI50: 0.416 µM (active)
[18]
  CC50: 0.194 µM (active)

## O=C(O)C1CCCCC1C(=O)N1CCc2ccccc2C1CN1C(=O)[C@H]2CCCC[C@H]2C1=O (some centres undefined)
[19]
  AC50: > 52 µM (inactive)

## O=C1C(NS(=O)(=O)c2ccc(Br)cc2)=C(c2ccc(OC(F)(F)F)cc2)C(=O)c2ccccc21
[20]
  AC50: > 70 µM (inactive)
[21]
  AC50: > 70 µM (inactive)
